The values that follow come from patent US20230263798A1, “COMPOSITIONS AND METHODS FOR TREATING THERAPY RESISTANT CANCER” (The General Hospital Corporation, priority 2020, published 2023).

The test system of one test is PARP1. Description: Western blot analysis of PARP1. Format: cell-based. The note with it: treated cells. The method, then: (§1) FIGS. 8C and 8D show Western blot analysis of PARP1, phospho-elF2α, METTL3 with doxorubicin or Sal003 treatment. […] 500 nM Doxorubicin treated MCF7 cells were co-treated with 6uM of Enzastaurin or DMSO buffer. […] Data are average of 3 replicates +/-SEM.
Consistently, doxorubicin treated cells are sensitive to PARP inhibitors, such as Talazoparib (BMN-673, FIG. 8B).
On the technique in general: A western blot detects proteins with antibodies after separation by electrophoresis.

Test [1] concerns METTL3. Description: Western blot analysis of METTL3 in MCF7 cells. Format: cell-based. The note with it: MCF7 cells, agent alone vs untreated/buffer, Western blot.
Description: (§2) The Western blot includes samples with control shRNA or shMETTL3. […] Tubulin and Histone serve as Western blot loading controls. Data are average of 3 replicates +/-SEM. See also FIGS. 2A-2G.
(§3) Data are average of 3 replicates +/-SEM. Tubulin serves as the loading control.
(§4) Tubulin and Histone serve as Western blot loading controls. Data are average of 3 replicates +/-SEM. See also FIGS. 4A-4H.
(§5) Actin and Tubulin are loading controls for Western blots. Data are average of 3 replicates +/-SEM.
as §1
To determine the mechanisms of specific mRNA expression in chemosurviving cancer cells, we examined RNA binding regulators in chemosurviving MCF7 breast cancer cells, isolated after doxorubicin chemotherapy treatment.

Another test deals with METTL3 5′UTR. Nature of the test: Firefly luciferase reporter bearing the 5′UTR of METTL3. As to conditions: doxorubicin treated vs untreated cells, normalized to Renilla. Format: cell-based. From the text:
FIGS. 5A-5I show HuR and associated translation initiation factors promote METTL3 translation in doxorubicin resistant cells. […] Tubulin is the loading control for Western blots. Data are average of 3 replicates +/-SEM. See also FIGS. 6A-6K.
To test if METTL3 mRNA encodes for cis-acting elements that direct its translation upregulation in doxorubicin-treated cells, we constructed Luciferase reporters bearing METTL3 mRNA 5′UTR and 3′UTR, or their reverse sequences or vector sequence as controls. We tested these reporters and their controls in untreated and doxorubicin treated cells. […] Importantly, RNA levels of the 5′UTR reporter remained unaffected between doxorubicin treated compared to untreated cells, and compared to reverse or vector reporters, indicating translation control.

Test [2] relates to phospho-elF2α. Description: Western blot of elF2α phosphorylation in BT549 cells. The note with it: over time of treatment. The format is cell-based. The method, then: as §3
To determine the mechanisms of specific mRNA expression in chemosurviving cancer cells, we examined RNA binding regulators in chemosurviving MCF7 breast cancer cells, isolated after doxorubicin chemotherapy treatment. […] The increase observed is transient and is not observed at 48 h of treatment (FIG. 2A).

Test [3] concerns METTL3. Description: Western blot of METTL3 in patient-derived xenografts treated in vivo. As to conditions: hormone positive breast cancer patient derived xenografts, 2-1 0 mg/kg doxorubicin in vivo.
The next test has as its system HuR. Description: Western blot of HuR. Format: cell-based. As to conditions: over time of doxorubicin treatment. An excerpt:
Western blot is shown of other RNA binding proteins that increase in mass spectrometry data. […] FIGS. 6J and 6K show Hexim, PPM1G and HuR increase in chemotreated patient samples and on doxorubicin treatment.

Test [4] concerns METTL3. Description: Western blot of METTL3 in breast cancer patient samples grown in 3D cultures. Format: cell-based. As to conditions: hormone positive breast cancer patient samples grown as tumor spheres.
Description: as §2
As METTL3 increases in chemosurviving cells and increases m6A on RNA, we tested whether METTL3 increase is needed for chemosurvival by depleting METTL3 or overexpressing METTL3 or a catalytically defective METTL3 (CD-M3) mutant and then tested these cells for doxorubicin survival.

Test [5] relates to phospho-elF2α. Description: Western blot of elF2α phosphorylation in MCF7 cells. The format is cell-based. The note with it: MCF7 cells, agent alone, Western blot. As for the experimental part: as §1
A further test concerns METTL14. Nature of the test: Western blot of METTL14 in breast cancer patient samples grown as tumor spheres. Format: cell-based.
The next test deals with METTL3 mRNA. Nature of the test: METTL3 mRNA level and translation (qPCR, polysome fractionation, nascent amino acid labeling). The format is cell-based. The method, then: as §4, §5
To verify that the increase in METTL3 was at the translation level, polysome analysis was conducted first. […] We next verified increased polysome association of METTL3 mRNA with Y10B antibody immunoprecipitation in doxorubicin treated and in Sal003 cells compared to buffer treated cells (FIGS. 3I and 4F).
In general terms: Real-time PCR tracks product formation cycle by cycle.

In the next test the test system is m6A on RNA. Nature of the test: m6A on ribosomal RNA depleted RNA (dot blot, 2D-TLC). The format is cell-based. The note with it: ribosomal RNA depleted RNA from treated vs untreated MCF7 cells; dot blot or 2D-TLC. The method, then:
The Western blot includes samples with control shRNA or shMETTL3. […] Tubulin and Histone serve as Western blot loading controls. Data are average of 3 replicates +/-SEM. See also FIGS. 2A-2G. […]
To test whether the increased m6A modification enzymes lead to increased m6A modification on RNA, ribosomal RNA depleted RNA from doxorubicin treated cells compared to untreated cells by dot blot analyses was tested. […] Consistent with decreased METTL3 upon knockdown, the dot blot signal is depleted when METTL3 is knocked down (FIG. 1B). Second, RNA from doxorubicin treated cells for m6A by two-dimensional-thin layer chromatography separation (2D-TLC) was performed (H. Grosjean, G. Keith, L. Droogmans, Detection and quantification of modified nucleotides in RNA using thin-layer chromatography. Methods in molecular biology (Clifton, N.J.) 265, 357-391 (2004)).

The subject of test [6] is METTL3. Nature of the test: Western blot of METTL3 in BT549 cells. The format is cell-based. The note with it: over time of treatment.

Turning to `COc1cccc2c1C(=O)c1c(O)c3c(c(O)c1C2=O)C[C@@](O)(C(=O)CO)C[C@@H]3O[C@H]1C[C@H](N)[C@H](O)[C@H](C)O1` [doxorubicin], in the test with PARP1, the PARP1 level result is given as “increases”. Also, the METTL3 level result is “increases” in the test with METTL3 [1], “increases” with METTL3 [3], “increased” in the test with METTL3 [4] and “transient increase” with METTL3 [6]. Also, the “METTL3 5′UTR luciferase reporter translation” value with METTL3 5′UTR was “enhanced translation”. Further, the values for the elF2α phosphorylation entry in the test with phospho-elF2α [2] and with phospho-elF2α [5] were “transient increase” and “phosphorylated over time”, respectively. For the same molecule, the HuR level result in the test with HuR was “increase”. Further, the METTL14 level entry in the test with METTL14 is “Increase”. For the same molecule, the “labeled (newly translated) METTL3, nascent translation assay” value in the test on METTL3 mRNA (Click-it Puro labeling, METTL3 immunoprecipitation, treated vs untreated) is “increase”. Moreover, the “METTL3 and METTL14 RNA levels by qPCR” value in the test on METTL3 mRNA (doxorubicin treated vs untreated cells) is reported as “no increase”. In the test with METTL3 mRNA (treated vs buffer treated cells, polysome fractionation and qPCR), the “METTL3 mRNA on polysomes compared to monosomes” value is “increased”. Further, the “m6A on RNA” value in the test with m6A on RNA was “more m6A modified RNA”.
